In the Deep4Chem optical property database:
“And” between values parts separate entries of the source, which are not always exact repeats. Equal values may be shown once.

Experiment: solvent given as SMILES

## CCC(=O)c1ccc2cc(N(C)C)ccc2c1
In C1CCCCC1
  absorption maximum: 342 nm and 343 nm
In C1CCOC1
  absorption maximum: 346 nm
In C1COCCO1
  absorption maximum: 348 nm
In CC#N
  absorption maximum: 347 nm and 368 nm
In CC(C)=O
  absorption maximum: 350 nm
In CC(C)O
  absorption maximum: 367 nm
In CCC(C)=O
  absorption maximum: 367 nm
In CCCCCC
  absorption maximum: 338 nm
In CCCCCCC
  absorption maximum: 343 nm
In CCCCCCCCO
  absorption maximum: 360 nm
In CCN(CC)CC
  absorption maximum: 343 nm
In CCO
  absorption maximum: 362 nm and 369 nm
In CCOC(C)=O
  absorption maximum: 352 nm
In CN(C)C=O
  absorption maximum: 350 nm
In CO
  absorption maximum: 362 nm
In CS(C)=O
  absorption maximum: 359 nm and 369 nm
In Cc1ccccc1
  absorption maximum: 345 nm and 349 nm
In ClC(Cl)Cl
  absorption maximum: 358 nm
In ClCCl
  absorption maximum: 355 nm and 358 nm
In Clc1ccccc1
  absorption maximum: 254 nm and 354 nm
In O
  absorption maximum: 364 nm
In OCC(O)CO
  absorption maximum: 370 nm
In OCCO
  absorption maximum: 375 nm
In c1ccccc1
  absorption maximum: 355 nm

## O=[N+]([O-])c1ccc(/C=C/c2c[nH]c3ccccc23)cc1
In CC#N
  absorption maximum: 410 nm
In CCCCCCC
  absorption maximum: 393 nm
In CO
  absorption maximum: 413 nm
In O
  absorption maximum: 418 nm

## O=c1oc2ccccc2nc1-c1ccc(Cl)cc1
In c1ccccc1
  absorption maximum: 344 nm

## Cc1ccc(-c2ccc(/C=C/c3ccc(F)cc3)cn2)nc1
In CC#N
  absorption maximum: 334 nm

## CC1=CC(C)=[N+]2C1=Cc1c(C)cc(C)n1[B-]2(F)F
In CCCCCC
  absorption maximum: 508 nm
In CO
  absorption maximum: 503 nm
In ClCCl
  absorption maximum: 506 nm

## CCOC(=O)c1c(-c2c(Cl)c3ccccc3oc2=O)nn(-c2ccc(Br)cc2)c1C(=O)OCC
In ClCCl
  absorption maximum: 322 nm

## F[B-]1(F)OC(/C=C/c2ccccc2)=CC(c2ccccc2)=[O+]1
In ClCCl
  absorption maximum: 398 nm

## Cc1cc(-n2c3ccccc3c3ccccc32)ccc1-c1ccc(S(=O)(=O)c2ccccc2)cc1C
In Cc1ccccc1
  absorption maximum: 340 nm

## F[B-]1(F)n2c(Nc3cccc4cccnc34)ccc2C(c2ccccc2)=C2C=CC(Cl)=[N+]21
In C1CCCCC1
  absorption maximum: 560 nm
In CC#N
  absorption maximum: 547 nm
In Cc1ccccc1
  absorption maximum: 561 nm
In ClC(Cl)Cl
  absorption maximum: 555 nm

## Cc1cc2nc3[nH]c(=O)[nH]c(=O)c3nc2cc1C
In CC#N
  absorption maximum: 380 nm

## Cc1ccc2c(c1)NC(=O)CC(=O)N2
In CS(C)=O
  absorption maximum: 294 nm

## CCCCN(CCCC)c1ccc(C#Cc2cc(C#Cc3ccc([N+](=O)[O-])cc3)c(C#Cc3ccc(N(CCCC)CCCC)cc3)cc2C#Cc2ccc([N+](=O)[O-])cc2)cc1
In ClCCl
  absorption maximum: 448 nm

## CCN(CC)c1ccc(-n2c(C)ccc2C)cc1
In CC#N
  absorption maximum: 304 nm
In CCCCCC
  absorption maximum: 310 nm

## CC(C)(C)C1CCC(=CS/C=C/c2ccc(/C=C/SC=C3CCC(C(C)(C)C)CC3)cc2)CC1 (centres undefined)
In ClCCl
  absorption maximum: 351 nm

## O=C(O)C1=C(C(=O)O)C2=C[C@H]3c4ccccc4[C@]2([Se]1)c1ccccc13
In ClCCl
  absorption maximum: 421 nm

## c1cc2oc3cccc4oc5cccc6oc(c1)c2[c+](c34)c65
In CC#N
  absorption maximum: 481 nm

## CCn1c(-c2ccc(-c3ccc4ccc5cccc6ccc3c4c56)cc2)c(-c2ccc3ccccc3c2)c(-c2ccc3ccccc3c2)c1-c1ccc(-c2ccc3ccc4cccc5ccc2c3c45)cc1
In CCOC(C)=O
  absorption maximum: 344 nm

## N#CC(C#N)=Cc1ccc2c(c1)c1ccccc1n2-c1cc2ccccc2c2ccccc12
In CC#N
  absorption maximum: 395 nm
In CCCCC
  absorption maximum: 393 nm
In Cc1ccccc1
  absorption maximum: 402 nm
In ClCCl
  absorption maximum: 406 nm

## COc1ccc(-c2ccc3c(c2)[Si](C)(C)c2cc(-c4ccc(OC)cc4)ccc2C=C3)cc1
In ClCCl
  absorption maximum: 385 nm

## C(#Cc1ccc2ccc3cccc4ccc1c2c34)c1ccccc1
In Cc1ccccc1
  absorption maximum: 362 nm

## c1ccc(-c2c3ccccc3c(-c3ncccn3)c3ccccc23)cc1
In CCO
  absorption maximum: 390 nm
In ClCCl
  absorption maximum: 393 nm

## CC(C)(C)c1ccc(-c2nc3ccccc3nc2-c2cc(-c3nc4ccccc4nc3-c3ccc(C(C)(C)C)cc3)cc(-n3c4ccccc4c4ccccc43)c2)cc1
In Cc1ccccc1
  absorption maximum: 344 nm

## CCC1=C(C2=C(C3=C(CC)S(=O)(=O)c4cc(-c5ccc(CO)cc5)ccc43)C(F)(F)C(F)(F)C2(F)F)c2ccc(-c3ccc(CO)cc3)cc2S1(=O)=O
In C1COCCO1
  absorption maximum: 340 nm

## CCN1CCN(c2ccc(/N=N/c3ccc([N+](=O)[O-])cc3)cc2)CC1
In CCOC(C)=O
  absorption maximum: 448 nm

## CC(C)(C)c1ccc(-c2c3c(c(-c4ccc(C(C)(C)C)cc4)c4cc5ccccc5cc24)Cc2c(c(-c4ccc(C(C)(C)C)cc4)c4cc5ccccc5cc4c2-c2ccc(C(C)(C)C)cc2)C3)cc1
In ClCCl
  absorption maximum: 393 nm

## COC(=O)C1(C(=O)OC)Cc2c(C#Cc3ccc(OC)cc3)c(-c3ccc(OC)cc3)c3c(-c4ccccc4)c(-c4ccccc4)c(-c4ccccc4)c(-c4ccccc4)c3c2C1
In C1CCOC1
  absorption maximum: 348.89 nm

## COc1cc(Br)cc2cc(-c3cc4cc(Br)cc(OC)c4oc3=O)oc12
In CC#N
  absorption maximum: 353 nm
In CCOC(C)=O
  absorption maximum: 355 nm
In CS(C)=O
  absorption maximum: 359 nm
In Cc1ccccc1
  absorption maximum: 360 nm
In O
  absorption maximum: 359 nm

## F[B-]1(F)Oc2ccccc2-c2n(-c3ccc(C(F)(F)F)cc3)c(-c3ccccc3)c(-c3ccccc3)[n+]21
In C1CCOC1
  absorption maximum: 327 nm

## N#CC(C#N)=Cc1ccc(-c2ccc(N(c3ccccc3)c3ccccc3)cc2)o1
In ClC(Cl)Cl
  absorption maximum: 509 nm
